Laboratory results as given in patent publication US9102620B2, “Deuterated N-ethyl-N-phenyl-1,2-dihydro-4-hydroxy-5-chloro-1-methyl-2-oxoquinoline-3-carboxamide, salts and uses thereof” (TEVA PHARMACEUTICAL INDUSTRIES, LTD., priority 2010, dated 2015).
Several values for one entry are separate records, joined by “and”; a condition that tells them apart may be missing. Equal values may be shown once. Read-outs that look alike come from different tables or passages of the source.

Legend:
CYP1A2 = settings: human, 3 days; for Enzyme activity, Phenacetin O-dealkylation (CYP1A2) / Percent positive control, Phenacetin O-dealkylation (CYP1A2) activity: hepatocytes
Procedure: After treatment, the cells were incubated in situ with marker substrates for the analysis of phenacetin O-dealkylation (marker for CYP1A2) and midazolam 1′-hydroxylation (marker for CYP3A4/5) by LC/MS/MS.
Incubations of hepatocytes with probe substrates were conducted in accordance with SOP L5041.02. Approximately 24 hours after the last treatment, spent media was aspirated from the wells, and each well was rinsed two times with pre-warmed (37±2° C.) fresh culture media. Media was aspirated from the wells and reactions were started by addition of 200 μL pre-warmed media containing the probe substrate to each well. […] At 30 minutes, an aliquot (150 μL) of the incubation mixture was removed and added to a well of a 96-well plate containing 300 μL of stop reagent (acetonitrile) and internal standard (Table 2). The mixtures were mixed thoroughly and allowed to sit for at least 15 minutes at 2-8° C. Samples were centrifuged at 2000×g for 10 minutes at 2-8° C., and supernatant fractions were analyzed by LC/MS/MS.
All analyses were performed with validated LC/MS/MS methods. The procedures used for the analysis of each metabolite followed the applicable LC/MS/MS analytical method SOPs and are summarized in Table 2. The MS equipment was either an ABI Sciex (Applied Biosystems/MDS SCIEX) API 4000 or API 3000 instrument with Shimadzu HPLC pumps and autosampler systems.
Individual rates of reaction from like treatment groups were averaged, and for those groups with n≧3, standard deviations were determined. Fold increases were determined by dividing the enzymatic rate for each treatment group by that of the vehicle control. Percent positive control was calculated with the following equation: […]

[1] = system: human hepatocyte culture H971; assay: Morphology of cultured human hepatocytes after treatment; type: cell-based; settings: within 24 hours after final treatment
Procedure: At the time of isolation the viability of the human hepatocyte preparation was 70.9%. During and after the 72-hour adaptation period, the culture was observed daily by light microscopy and judged to be morphologically normal with confluency adequate for treatment with test and control articles. Within 24 hours after the final treatment, hepatocytes were photographed to document their morphological integrity and any overt signs of toxicity of the test articles. Representative photomicrographs are maintained at the Testing Facility. […] Prior to and during treatment, human hepatocyte cultures formed confluent monolayers with few intercellular spaces; they were cuboidal and contained intact cell membranes and granular cytoplasm with one or two centrally located nuclei.

MOG induced EAE = MOG induced EAE in C57BL/6 mice; type: in vivo; settings: daily; for Mortality: Day 0 to Day 30; for % inhibition 1 (according to incidence) / % inhibition 2 (according to MMS) / % inhibition 3 (according to GMS): compared to vehicle; for Incidence: sick mice/group
[2] = DELAQ concentrations in rat plasma following oral administration of test item; type: in vivo; settings: rats, oral 0.2 mg/kg, in average
Procedure: DELAQ in rat plasma was also determined under the following condition. The plasma was purified by on-line SPE after precipitation with LUDOX AS-40 colloidal silica solution followed by the analysis with HPLC with MS/MS detection. The main objectives of this example were: • Quantification of Compound 1, Compound 2, Compound 3 and Laquinimod in rat plasma using LC/MS/MS bioanalytical method. • Characterization of the pharmacokinetic profile of Compound 1, Compound 2, Compound 3 and Laquinimod following oral (PO) administration at a dose of 0.2 mg/kg. • The measurement DELAQ concentrations in the collected plasma samples. Blood was withdrawn from the rats at five different time points for the preparation of plasma. The concentrations of Compound 1, Compound 2, Compound 3, laquinimod, and DELAQ were determined in these plasma samples, using applicable LC/MS/MS methods. The concentrations of test items (Compound 1, Compound 2, Compound 3 and Laquinimod) and the concentration of DELAQ were determined in the plasma samples by using reliable LC/MS/MS assay.

SMILES | Fold Increase, Phenacetin O-dealkylation (CYP1A2) activity (CYP1A2; 0.01 μM) | Fold Increase, Phenacetin O-dealkylation (CYP1A2) activity (CYP1A2; 0.05 μM) | Fold Increase, Phenacetin O-dealkylation (CYP1A2) activity (CYP1A2; 0.1 μM) | Fold Increase, Phenacetin O-dealkylation (CYP1A2) activity (CYP1A2; 1 μM) | Fold Increase, Phenacetin O-dealkylation (CYP1A2) activity (CYP1A2; 10 μM) | Enzyme activity, Phenacetin O-dealkylation (CYP1A2) (CYP1A2; 0.01 μM) | Percent positive control, Phenacetin O-dealkylation (CYP1A2) activity (CYP1A2; 0.01 μM) | Enzyme activity, Phenacetin O-dealkylation (CYP1A2) (CYP1A2; 0.05 μM) | Percent positive control, Phenacetin O-dealkylation (CYP1A2) activity (CYP1A2; 0.05 μM) | Enzyme activity, Phenacetin O-dealkylation (CYP1A2) (CYP1A2; 0.1 μM) | Percent positive control, Phenacetin O-dealkylation (CYP1A2) activity (CYP1A2; 0.1 μM) | Enzyme activity, Phenacetin O-dealkylation (CYP1A2) (CYP1A2; 1 μM) | Percent positive control, Phenacetin O-dealkylation (CYP1A2) activity (CYP1A2; 1 μM) | Enzyme activity, Phenacetin O-dealkylation (CYP1A2) (CYP1A2; 10 μM) | Percent positive control, Phenacetin O-dealkylation (CYP1A2) activity (CYP1A2; 10 μM) | cell morphology after treatment [1] | GMS value (group mean score) (MOG induced EAE; 10 mg/kg orally) | MMS value (mean maximal score) (MOG induced EAE; 10 mg/kg orally) | Mean Duration (MOG induced EAE; 10 mg/kg orally) | Mean Onset (MOG induced EAE; 10 mg/kg orally) | other results
[2H]C([2H])([2H])C([2H])([2H])N(C(=O)c1c(O)c2c(Cl)cccc2n(C)c1=O)c1ccccc1 [Compound 2, N-D5-ethyl-N-phenyl-1,2-dihydro-4-hydroxy-5-chloro-1-methyl-2-oxoquinoline-3-carboxamide] | 7.39 fold | 10.54 fold | 16.12 fold | 30.36 fold | 60.21 fold | 22.1 ± 2.7 pmol/mg protein/min | 23.3% | 31.6 ± 2.6 pmol/mg protein/min | 34.9% | 48.2 ± 2.4 pmol/mg protein/min | 55.2% | 90.8 ± 11.5 pmol/mg protein/min | 107% | 180 ± 8 pmol/mg protein/min | 216% | no changes in cell morphology | 0.79 ± 0.2 | 2.1 ± 1.3 | 13.2 ± 7.7 days | 15.3 ± 6.8 days | activity in inhibition of EAE clinical signs compared to laquinimod (MOG induced EAE; 10 mg/kg orally): no significant difference in activity; Mortality (MOG induced EAE; 10 mg/kg orally): 0/15; % inhibition 1 (according to incidence) (MOG induced EAE; 10 mg/kg orally): 7.1%; % inhibition 2 (according to MMS) (MOG induced EAE; 10 mg/kg orally): 34.4%; % inhibition 3 (according to GMS) (MOG induced EAE; 10 mg/kg orally): 64.3%; Incidence (MOG induced EAE; 10 mg/kg orally): 13/15; reduction in DELAQ concentrations compared to laquinimod treated animals [2]: about ten-fold
CCN(C(=O)c1c(O)c2c(Cl)cccc2n(C)c1=O)c1ccccc1 [Laquinimod, N-ethyl-N-phenyl-1,2-dihydro-4-hydroxy-5-chloro-1-methyl-2-oxoquinoline-3-carboxamide] | 8.43 fold | 18.06 fold | 21.75 fold | 43.79 fold | 61.02 fold | 25.2 ± 0.8 pmol/mg protein/min | 27.1% | 54.0 ± 4.5 pmol/mg protein/min | 62.3% | 65.1 ± 1.9 pmol/mg protein/min | 75.8% | 131 ± 12 pmol/mg protein/min | 156% | 183 ± 7 pmol/mg protein/min | 219% | no changes in cell morphology | 1.14 ± 0.5 | 2.1 ± 1.9 | 9.3 ± 8.3 days | 21.6 ± 8.4 days | Mortality (MOG induced EAE; 10 mg/kg orally): 0/15; % inhibition 1 (according to incidence) (MOG induced EAE; 10 mg/kg orally): 35.7%; % inhibition 2 (according to MMS) (MOG induced EAE; 10 mg/kg orally): 34.4%; % inhibition 3 (according to GMS) (MOG induced EAE; 10 mg/kg orally): 48.4%; % inhibition 3 (according to GMS) (MOG induced EAE; 10 mg/kg orally, listed as laquinimod): 48.4%; Incidence (MOG induced EAE; 10 mg/kg orally): 9/15; GMS value (group mean score) (MOG induced EAE; 25 mg/kg orally): 0.5±0.1 and 0.5 ± 0.13; MMS value (mean maximal score) (MOG induced EAE; 25 mg/kg orally): 1.3±1.8; Mean Duration (MOG induced EAE; 25 mg/kg orally): 3.0 ± 5.8 days; Mean Onset (MOG induced EAE; 25 mg/kg orally): 28.0 ± 5.8 days; Mortality (MOG induced EAE; 25 mg/kg orally): 0/15; % inhibition 1 (according to incidence) (MOG induced EAE; 25 mg/kg orally): 71.4%; % inhibition 2 (according to MMS) (MOG induced EAE; 25 mg/kg orally): 59.4%; % inhibition 3 (according to GMS) (MOG induced EAE; 25 mg/kg orally): 97.7%; Incidence (MOG induced EAE; 25 mg/kg orally): 4/15
